Laboratory results reported in US11780826B2 (Amgen Inc., priority 2017, dated 2023).

Test system: Bovine cardiac myofibrils
Assay: In vitro model of dose-dependent myofibril ATPase modulation (AC1.4, pyruvate kinase/lactate dehydrogenase-coupled ATPase assay at pCa25)
Type: biochemical
Settings: concentration at which ATPase activity was 1.4-fold higher than the bottom of the dose curve, mean of a minimum of two independent tests
How it was run: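 Bovine cardiac myofibrils, detergent-treated; 0.25-1.0 mg/ml. Buffer: K-PIPES 12 mM, MgCl2 2 mM, DTT 1 mM, BSA 0.1 mg/ml, pH 6.80, 22° C; Ca2+ set by EGTA/CaCl2. ATP 1 mM, NADH/PEP-coupled, A340. 4-parameter fit; n≥2.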

Row | SMILES | AC1.4 [µM]
1 | CN(C)S(=O)(=O)c1cccc(C(=O)N2CCC[C@@H]2C(=O)NCc2ccc(C(F)(F)F)cc2F)c1 [Example 459, 1-(3-(dimethylsulfamoyl)benzoyl)-N-(2-fluoro-4-(trifluoromethyl)benzyl)-D-prolinamide] | 1.8995
2 | N#CC1CC(S(=O)(=O)c2cccc(C(=O)N3CCCC[C@@H]3C(=O)NCc3ccc(C(F)(F)F)nc3)c2)C1 (stereo partly drawn) [Example 460, (R)-1-(3-((3-cyanocyclobutyl)sulfonyl)benzoyl)-N-((6-(trifluoromethyl)pyridin-3-yl)methyl)piperidine-2-carboxamide] | 1.915
3 | C[C@H](NC(=O)[C@H]1CCCN1C(=O)[C@H]1CCCN(S(=O)(=O)N2CC(C#N)C2)C1)c1ccc(Cl)c(F)c1 [Example 462, N-((1S)-1-(4-chloro-3-fluorophenyl)ethyl)-1-(((3S)-1-((3-cyano-1-azetidinyl)sulfonyl)-3-piperidinyl)carbonyl)-D-prolinamide] | 1.9235
4 | CS(=O)(=O)c1ccc(F)c(C(=O)N2CCC[C@@H]2C(=O)N[C@@H](c2ccc(C(F)(F)F)cc2F)C2CC2)c1 [Example 464, N-((R)-cyclopropyl(2-fluoro-4-(trifluoromethyl)phenyl)methyl)-1-(2-fluoro-5-(methylsulfonyl)benzoyl)-D-prolinamide] | 1.612
5 | C[C@@H](NC(=O)[C@H]1CCCN1C(=O)c1cccc(S(=O)(=O)N2CC(C)(O)C2)c1)c1ccc(C(F)(F)F)cc1 [Example 466, 1-(3-((3-hydroxy-3-methyl-1-azetidinyl)sulfonyl)benzoyl)-N-((1R)-1-(4-(trifluoromethyl)phenyl)ethyl)-D-prolinamide] | 1.961
6 | CC[C@H](NC(=O)[C@H]1CCCN1C(=O)[C@H]1CCCN(S(=O)(=O)N2CC(C#N)C2)C1)c1cc(F)cc(F)c1 [Example 468, 1-(((3S)-1-((3-cyano-1-azetidinyl)sulfonyl)-3-piperidinyl)carbonyl)-N-((1S)-1-(3,5-difluorophenyl)propyl)-D-prolinamide] | 1.9855
7 | O=C(N[C@@H](c1cc(F)c(Cl)cc1F)C1COC1)[C@H]1C[C@H]2C[C@H]2N1C(=O)c1cc(C2CC2)ccn1 [Example 471, (1R,3R,5R)-N-((R)-(4-chloro-2,5-difluorophenyl)(3-oxetanyl)methyl)-2-((4-cyclopropyl-2-pyridinyl)carbonyl)-2-azabicyclo[3.1.0]hexane-3-carboxamide] | 1.996
8 | Cc1ccc(C(=O)N2[C@@H](C(=O)N[C@@H](c3cc(F)c(Cl)cc3F)C3COC3)C[C@H]3C[C@H]32)cc1S(C)(=O)=O [Example 472, (1R,3R,5R)-N-((R)-(4-chloro-2,5-difluorophenyl)(3-oxetanyl)methyl)-2-(4-methyl-3-(methylsulfonyl)benzoyl)-2-azabicyclo[3.1.0]hexane-3-carboxamide] | 1.807
9 | CS(=O)(=O)c1cccc(C(=O)N2CC3(CCC3)[C@@H]2C(=O)N[C@@H](c2ccc(C(F)(F)F)cc2F)C2CC2)c1 [Example 475, (1R)-N-((R)-cyclopropyl(2-fluoro-4-(trifluoromethyl)phenyl)methyl)-2-(3-(methylsulfonyl)benzoyl)-2-azaspiro[3.3]heptane-1-carboxamide] | 1.866
10 | O=C(O[C@@H]1CC(C(=O)N[C@@H](c2cc(F)c(Cl)cc2F)C2COC2)N(C(=O)c2ccnc(C(F)F)c2)C1)c1ccnc(C(F)F)c1 (stereo partly drawn) [Example 476, (3R,5R)-5-(((R)-(4-chloro-2,5-difluorophenyl)(3-oxetanyl)methyl)carbamoyl)-1-((2-(difluoromethyl)-4-pyridinyl)carbonyl)-3-pyrrolidinyl2-(difluoromethyl)-4-pyridinecarboxylate] | 2.071
11 | CN(C)S(=O)(=O)c1cccc(C(=O)N2C[C@H]3C[C@H]3[C@@H]2C(=O)NCc2ccc(C(F)(F)F)cc2)c1 [Example 478, (1R,2R,5S)-3-(3-(dimethylsulfamoyl)benzoyl)-N-(4-(trifluoromethyl)benzyl)-3-azabicyclo[3.1.0]hexane-2-carboxamide] | 2.082
12 | CS(=O)(=O)c1cccc(C(=O)N2CCC[C@@H]2C(=O)N[C@@H](c2ccc(Cl)cc2F)C2CC2)c1 [Example 479, N-((R)-(4-chloro-2-fluorophenyl)(cyclopropyl)methyl)-1-(3-(methylsulfonyl)benzoyl)-D-prolinamide] | 1.887
13 | O=C(N[C@@H](c1ccc(C(F)(F)F)cc1F)C1COC1)[C@H]1C[C@H]2C[C@H]2N1C(=O)c1ccnc(C(F)F)c1 [Example 480, (1R,3R,5R)-2-((2-(difluoromethyl)-4-pyridinyl)carbonyl)-N-((R)-(2-fluoro-4-(trifluoromethyl)phenyl)(3-oxetanyl)methyl)-2-azabicyclo[3.1.0]hexane-3-carboxamide] | 2.1525
14 | CS(=O)(=O)c1cccc(C(=O)N2CCC[C@@H]2C(=O)NC(c2ccc(C(F)(F)F)cc2)C2CNC(=O)C2)c1 (stereo partly shown) [Example 482] | 1.945
15 | CS(=O)(=O)c1cccc(C(=O)N2C[C@@H]3C[C@@H]3[C@@H]2C(=O)N[C@@H](c2ccc(C(F)(F)F)cc2F)C2CC2)c1 [Example 484, (1S,2R,5R)-N-((R)-cyclopropyl(2-fluoro-4-(trifluoromethyl)phenyl)methyl)-3-(3-(methylsulfonyl)benzoyl)-3-azabicyclo[3.1.0]hexane-2-carboxamide] | 2.014
16 | CS(=O)(=O)c1cccc(C(=O)N2[C@@H](C(=O)N[C@@H](c3ccc(Cl)c(F)c3)C3CC3)C[C@H]3C[C@H]32)c1 [Example 485, (1R,3R,5R)-N-((R)-(4-chloro-3-fluorophenyl)(cyclopropyl)methyl)-2-(3-(methylsulfonyl)benzoyl)-2-azabicyclo[3.1.0]hexane-3-carboxamide] | 2.0445
17 | O=C(N[C@@H](c1cc(F)c(Cl)cc1F)C1COC1)[C@H]1C[C@H]2C[C@H]2N1C(=O)c1cc(C(F)(F)F)ncn1 [Example 487, (1R,3R,5R)-N-((R)-(4-chloro-2,5-difluorophenyl)(3-oxetanyl)methyl)-2-((6-(trifluoromethyl)-4-pyrimidinyl)carbonyl)-2-azabicyclo[3.1.0]hexane-3-carboxamide] | 2.218

Results, then the compound that gave them:

Row | AC1.4 [µM] | SMILES
18 | 1.9174 | O=C(NCc1ccc(C(F)(F)F)cc1)[C@H]1CCCN1C(=O)c1cccc(S(=O)(=O)N2CC(F)(F)C2)c1 [Example 461, 1-((3-((3,3-difluoro-1-azetidinyl)sulfonyl)phenyl)carbonyl)-N-(4-(trifluoromethyl)benzyl)-D-prolinamide]
19 | 1.9305 | O=C(NCc1ccc(C(F)(F)F)cc1)[C@H]1CCCN1C(=O)[C@H]1CCCN(S(=O)(=O)N2CC(F)(c3ccccc3)C2)C1 [Example 463, 1-(((3S)-1-((3-fluoro-3-phenyl-1-azetidinyl)sulfonyl)-3-piperidinyl)carbonyl)-N-(4-(trifluoromethyl)benzyl)-D-prolinamide]
20 | 1.9455 | C[C@@H](NC(=O)[C@H]1CCCN1C(=O)[C@H]1CCCN(S(=O)(=O)N2CC(C#N)C2)C1)c1cccc(C(F)(F)F)c1 [Example 465, 1-(((3S)-1-((3-cyano-1-azetidinyl)sulfonyl)-3-piperidinyl)carbonyl)-N-((1R)-1-(3-(trifluoromethyl)phenyl)ethyl)-D-prolinamide]
21 | 1.9675 | O=C(NCc1ccc(C(F)(F)F)cc1)[C@H]1CCCN1C(=O)[C@H]1CCCN(S(=O)(=O)N2CC(O)(C(F)(F)F)C2)C1 [Example 467, 1-(((3S)-1-((3-hydroxy-3-(trifluoromethyl)-1-azetidinyl)sulfonyl)-3-piperidinyl)carbonyl)-N-(4-(trifluoromethyl)benzyl)-D-prolinamide]
22 | 1.9915 | O=C(NCc1ccc(C(F)(F)F)cc1)[C@H]1CCCN1C(=O)[C@H]1CCCN(S(=O)(=O)N2CC(Nc3ccc(F)cc3)C2)C1 [Example 469, 1-(((3S)-1-((3-((4-fluorophenyl)amino)-1-azetidinyl)sulfonyl)-3-piperidinyl)carbonyl)-N-(4-(trifluoromethyl)benzyl)-D-prolinamide]
23 | 1.9915 | N#CC1CN(S(=O)(=O)N2CC[C@H](C(=O)N3CCC[C@@H]3C(=O)NCc3ccc(C(F)(F)F)cc3F)C2)C1 [Example 470, 1-(((3S)-1-((3-cyano-1-azetidinyl)sulfonyl)-3-pyrrolidinyl)carbonyl)-N-(2-fluoro-4-(trifluoromethyl)benzyl)-D-prolinamide]
24 | 2.035 | O=C1NCCCCC1NS(=O)(=O)N1CCC[C@H](C(=O)N2CCC[C@@H]2C(=O)NCc2ccc(C(F)(F)F)cc2)C1 (stereo partly drawn) [Example 473, (2R)-1-((3S)-1-(N-(2-oxoazepan-3-yl)sulfamoyl)piperidine-3-carbonyl)-N-(4-(trifluoromethyl)benzyl)pyrrolidine-2-carboxamide]
25 | 2.036 | COC1CCN(S(=O)(=O)c2cccc(C(=O)N3CCC[C@@H]3C(=O)NCc3ccc(C(F)(F)F)cc3)c2)CC1 [Example 474, 1-((3-((4-methoxy-1-piperidinyl)sulfonyl)phenyl)carbonyl)-N-(4-(trifluoromethyl)benzyl)-D-prolinamide]
26 | 2.0765 | O=C(NCc1ccc(C(F)(F)F)cc1)[C@H]1CCCN1C(=O)[C@H]1CCCN(S(=O)(=O)N2CC(c3ccc(F)cc3)C2)C1 [Example 477, 1-(((3S)-1-((3-(4-fluorophenyl)-1-azetidinyl)sulfonyl)-3-piperidinyl)carbonyl)-N-(4-(trifluoromethyl)benzyl)-D-prolinamide]
27 | 2.168 | O=C(NCc1ccc(C(F)(F)F)cc1)[C@H]1CCCN1C(=O)[C@H]1CCCN(S(=O)(=O)N2CC(C3CCC3)C2)C1 [Example 483, 1-(((3S)-1-((3-cyclobutyl-1-azetidinyl)sulfonyl)-3-piperidinyl)carbonyl)-N-(4-(trifluoromethyl)benzyl)-D-prolinamide]
28 | 2.202 | O=C(NCc1ccc(C(F)(F)F)cc1)[C@H]1CCCN1C(=O)c1cccc(S(=O)(=O)N2CCC2)c1 [Example 486, 1-(3-(l-azetidinylsulfonyl)benzoyl)-N-(4-(trifluoromethyl)benzyl)-D-prolinamide]
